Experimental data published in US6610883B1, “Compounds having selective activity for retinoid X receptors, and means for modulation of processes mediated by retinoid X receptors” (Ligand Pharmaceuticals, Inc., priority 1992, dated 2003).

Tests used:
[1] = target: T1, RXRβ/VDR (UniProt P11473+P28704); assay: Co-transfection of RXRβ and VD receptors in CV-1 cells; type: cell-based
T1 construct: expressed in transfected cells; host or cells: CV-1

[2] = target: T2, RARα (Homo sapiens, UniProt P10276); assay: Radioligand displacement binding, RARα; set-up: made in house; details: displacement of radiolabeled retinoic acid, read-out: Binding (Kd50 nM)
T2 sequence (P10276 1-462): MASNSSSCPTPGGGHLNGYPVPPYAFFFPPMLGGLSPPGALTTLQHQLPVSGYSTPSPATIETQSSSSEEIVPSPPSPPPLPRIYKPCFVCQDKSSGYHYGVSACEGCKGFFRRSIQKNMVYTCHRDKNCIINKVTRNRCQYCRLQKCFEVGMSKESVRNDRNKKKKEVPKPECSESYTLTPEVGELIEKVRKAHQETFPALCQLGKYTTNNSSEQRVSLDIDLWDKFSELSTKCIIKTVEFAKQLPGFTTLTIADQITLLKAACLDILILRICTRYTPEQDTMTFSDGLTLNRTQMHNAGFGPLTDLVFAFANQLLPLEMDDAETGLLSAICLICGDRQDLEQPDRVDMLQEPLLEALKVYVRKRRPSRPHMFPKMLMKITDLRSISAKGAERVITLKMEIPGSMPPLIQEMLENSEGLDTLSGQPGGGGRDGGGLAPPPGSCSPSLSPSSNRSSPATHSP
Experimental: (§7) The binding parameters of receptors expressed in baculovirus systems and mammalian systems are essentially identical.
(§8) By testing the abilities of various synthetic retinoids to compete with the radiolabeled retinoic acid for binding to various receptor isoforms, the ability of the compounds to directly interact with the receptor can be examined, and the relative dissociation constant for the receptor itself can be determined.
(§9) The Kd values were determined by application of the Cleng-Prusoff equation. These values were based on a determination of the IC50 value as determined graphically from a log-logit plot of the data.

[3] = target: T3, RARβ (Homo sapiens, UniProt P10826); assay: Radioligand displacement binding, RARβ
T3 sequence (P10826 1-455): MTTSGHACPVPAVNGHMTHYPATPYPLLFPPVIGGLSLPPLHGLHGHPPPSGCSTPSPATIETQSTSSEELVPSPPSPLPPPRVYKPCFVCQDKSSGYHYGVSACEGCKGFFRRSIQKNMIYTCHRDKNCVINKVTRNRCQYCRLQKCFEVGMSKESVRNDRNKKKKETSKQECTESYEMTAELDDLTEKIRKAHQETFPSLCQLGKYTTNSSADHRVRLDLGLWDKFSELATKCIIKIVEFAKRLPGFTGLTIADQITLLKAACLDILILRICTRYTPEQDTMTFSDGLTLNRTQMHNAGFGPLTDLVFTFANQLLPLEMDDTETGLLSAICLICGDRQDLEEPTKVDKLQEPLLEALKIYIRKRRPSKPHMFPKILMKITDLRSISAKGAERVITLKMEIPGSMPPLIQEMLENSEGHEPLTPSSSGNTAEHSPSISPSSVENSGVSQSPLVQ
Experimental: as §7, §8, §9

[4] = target: T4, RARγ (Homo sapiens, UniProt P13631); assay: Radioligand displacement binding, RARγ
T4 sequence (P13631 1-454): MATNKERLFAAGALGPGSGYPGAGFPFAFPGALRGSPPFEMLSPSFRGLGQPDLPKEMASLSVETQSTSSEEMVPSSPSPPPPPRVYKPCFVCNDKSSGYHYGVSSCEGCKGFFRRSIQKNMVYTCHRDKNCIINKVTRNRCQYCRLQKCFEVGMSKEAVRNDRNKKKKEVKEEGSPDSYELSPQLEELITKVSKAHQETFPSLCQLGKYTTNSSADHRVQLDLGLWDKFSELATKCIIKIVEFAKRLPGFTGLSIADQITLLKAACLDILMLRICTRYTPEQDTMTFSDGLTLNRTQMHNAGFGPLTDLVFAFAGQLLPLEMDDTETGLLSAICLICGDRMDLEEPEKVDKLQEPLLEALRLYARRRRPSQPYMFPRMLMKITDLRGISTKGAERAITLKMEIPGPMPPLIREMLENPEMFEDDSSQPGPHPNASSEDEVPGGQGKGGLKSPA
Experimental: as §7, §8, §9

[5] = target: T2, RARα; assay: Co-transfection (cis-trans) assay in CV-1 cells, RARα; type: cell-based; set-up: expressed in transfected cells; host or cells: CV-1 (monkey kidney)
Excerpt: (§1) The co-transfection assay provides a mechanism to evaluate the ability of a compound to modulate the transcription response initiated by an intracellular receptor. […] Berger, et al., J. Steroid Biochem Molec.
(§2) Briefly, the co-transfection assay involves the introduction of two plasmids by transient transfection into a retinoid receptor-negative mammalian cell background. The first plasmid contains a retinoid receptor cDNA and directs constitutive expression of the encoded receptor. The second plasmid contains a cDNA that encodes for a readily quantifiable protein, e.g., firefly luciferase or chloramphenicol acetyl transferase (CAT), under control of a promoter containing a retinoid acid response element, which confers retinoid dependence on the transcription of the reporter. In this co-transfection assay, all retinoid receptors respond to all-trans-retinoic acid in a similar fashion. This assay can be used to accurately measure efficacy and potency of retinoic acid and synthetic retinoids as ligands that interact with the individual retinoid receptor subtypes.
(§3) Accordingly, synthetic retinoid compounds of the current invention were evaluated for their interaction with retinoid receptor subtypes using the co-transfection assay in which CV-1 cells were co-transfected with one of the retinoid receptor subtypes, a reporter construct, and an internal control to allow normalization of the response for transfection efficiency. The following example is illustrative.
(§4) Retinoids: All-tans-retinoic acid (RA) and 13-cis-retinoic acid (13-cis-RA) were obtained from Sigma. […] Retinoids were dissolved in dimethylsulfoxide for use in the transcriptional activation assays.
(§5) Co-transfection Assay In CV-1 Cells: A monkey kidney cell line, CV-1, was used in the cis-trans assay. Cells were transfected with two plasmids. […] The cis-vector contains an easily assayable gene product, in this case the firefly luciferase, coupled to a retinoid-responsive promoter, i.e., an RARE or RXRE. Addition of retinoic acid or an appropriate synthetic retinoid results in the formation of a retinoid-RAR or -RXR complex that activates the expression of luciferase gene, causing light to be emitted from cell extracts. The level of luciferase activity is directly proportional to the effectiveness of the retinoid-receptor complex in activating gene expression. This sensitive and reproducible co-transfection approach permits the identification of retinoids that interact with the different receptor isoforms.
(§6) Cells were cultured in DMEM supplemented with 10% charcoal resin-stripped fetal bovine serum, and experiments were conducted in 96-well plates. […] Cells were transfected for 6 h and then washed to remove the precipitate. The cells were then incubated for 36 h with or without retinoid. After the transfection, all subsequent steps were performed on a Beckman Biomek Automated Workstation. […] All determinations were performed in triplicate in two independent experiments and were normalized for transfection efficiency by using β-galactosidase as the internal control. […] Efficacy values less than 5% are not statistically different than the 0% background.

[6] = target: T3, RARβ; assay: Co-transfection (cis-trans) assay in CV-1 cells, RARβ; type: cell-based; set-up: expressed in transfected cells; host or cells: CV-1 (monkey kidney)
Excerpt: as §1, §2, §3, §4, §5, §6

[7] = target: T4, RARγ; assay: Co-transfection (cis-trans) assay in CV-1 cells, RARγ; type: cell-based; set-up: expressed in transfected cells; host or cells: CV-1 (monkey kidney)
Excerpt: as §1, §2, §3, §4, §5, §6

[8] = CV-1, maximal response relative to all-trans-retinoic acid at 10^−5 M, read-out: Efficacy
[9] = CV-1 cells, luciferase reporter, 36 h, read-out: Potency

T1 sequence (P28704 whole entry): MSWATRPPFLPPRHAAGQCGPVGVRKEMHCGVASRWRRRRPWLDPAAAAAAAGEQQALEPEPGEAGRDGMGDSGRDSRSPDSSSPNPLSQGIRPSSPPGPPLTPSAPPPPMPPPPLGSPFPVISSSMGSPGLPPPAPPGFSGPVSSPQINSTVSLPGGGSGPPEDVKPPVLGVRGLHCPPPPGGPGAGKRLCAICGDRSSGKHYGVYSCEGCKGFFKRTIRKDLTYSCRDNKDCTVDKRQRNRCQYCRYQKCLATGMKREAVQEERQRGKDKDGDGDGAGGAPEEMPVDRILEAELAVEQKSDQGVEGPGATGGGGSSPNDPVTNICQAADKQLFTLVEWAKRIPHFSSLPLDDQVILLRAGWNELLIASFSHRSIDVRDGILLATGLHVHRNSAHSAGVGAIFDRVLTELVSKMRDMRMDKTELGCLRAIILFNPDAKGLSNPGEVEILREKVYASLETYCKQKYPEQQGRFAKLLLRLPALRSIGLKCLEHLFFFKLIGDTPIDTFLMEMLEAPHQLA
T1 sequence (P11473 whole entry): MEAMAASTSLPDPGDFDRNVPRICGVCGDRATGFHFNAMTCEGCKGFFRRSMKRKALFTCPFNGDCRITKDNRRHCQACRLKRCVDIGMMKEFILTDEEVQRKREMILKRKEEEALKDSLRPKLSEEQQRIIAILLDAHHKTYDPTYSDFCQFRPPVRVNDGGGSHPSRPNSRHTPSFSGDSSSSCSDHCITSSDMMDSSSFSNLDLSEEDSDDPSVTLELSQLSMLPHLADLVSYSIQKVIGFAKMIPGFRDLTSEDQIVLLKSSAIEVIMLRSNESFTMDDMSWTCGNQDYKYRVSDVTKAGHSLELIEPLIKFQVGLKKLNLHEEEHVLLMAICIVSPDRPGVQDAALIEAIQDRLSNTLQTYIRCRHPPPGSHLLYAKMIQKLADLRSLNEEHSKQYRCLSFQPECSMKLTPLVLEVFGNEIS

| Molecule | Normalized Response (%) [1] [%] | Kd [2] [µM] | Kd [3] [µM] | Kd [4] [µM] | Emax at 10 µM [5, 8] [%] | EC50 [5, 9] [µM] | Emax at 10 µM [6, 8] [%] | EC50 [6, 9] [µM] | Emax at 10 µM [7, 8] [%] | EC50 [7, 9] [µM] |
| --- | --- | --- | --- | --- | --- | --- | --- | --- | --- | --- |
| 1,25-dihydroxy-vitamin D | 100 | – | – | – | – | – | – | – | – | – |
| C=C(c1ccc(C(=O)O)cn1)c1cc2c(cc1C)C(C)(C)CCC2(C)C [TPNEP (58), 2-[1-(3,5,5,8,8-pentamethyl-5,6,7,8-tetrahydro-2-naphthyl)ethenyl]pyridine-5-carboxylic acid] | – | 7.8 | 4.9 | 6 | < 2 | > 10 | < 2 | > 10 | 24 | 1.5 |
